From paper PMC6600181, “Reversal of MK-801-Induced Disruptions in Social Interactions and Working Memory with Simultaneous Administration of LY487379 and VU152100 in Mice” (International Journal of Molecular Sciences, 2019)

Legend:
[1] = system: MK-801-treated mice; assay: Novel object recognition test (MK-801-induced disruptions); assay type: in vivo, mice (male CD1); conditions: for treatment of deficits in novel object recognition induced by prolonged MK-801: compounds acutely 24 h later, 30 min before test, LY487379 0.1, 0.5, 1 mg/kg, VU152100 0.1, 0.25, 1 mg/kg; for prevention of MK-801-induced disruptions in object recognition: acute, 30 min before acute MK-801
Description: (§1) Schedules of administration are presented graphically in Figure 1. […] Different vehicles were used throughout the study: (1) 0.9% NaCl, (2) 10% Tween 80 or (3) 10% Tween 80 containing 2% DMSO. Vehicles were administered to all animals (e.g., control mice, MK-801-treated mice) in the same schedule as drugs were administered to the drug-treated appropriate groups of mice.
(§2) Male CD1 mice (Charles River, Germany) weighing 20–25 g at the time of arrival were used in behavioural experiments. Animals were kept in standard laboratory cages T3 (265 × 420 × 180 mm, with an area of 825 cm^2), grouped at 10 mice per cage. Animals were kept under standard laboratory conditions (12:12 light:dark cycle, 21–22 °C) with free access to food and water. Animal welfare has been regularly controlled by a veterinarian and animal welfare committee. After 3–4 weeks of acclimatization and handling, the experiments began. Experimental groups consisted of 8 to 10 animals, depending on the procedure. Drugs were administered intraperitoneally (i.p.) at a volume of 10 mL/kg. Experimental assessments were performed by an observer who was blinded to treatment conditions. All procedures described herein were conducted in accordance with the European Communities Council Directive of 22 September 2010 (2010/63/EU) and Polish legislation acts concerning animal experimentation and were approved by the II Local Ethics Committee by the Institute of Pharmacology, Polish Academy of Sciences in Krakow (18/2019, 21.01.2019).
This procedure was adapted from Nilsson et al. and performed as described in a variety of our previous papers. Habituation, training and test trials were performed in a black plastic rectangular arena (40 × 30 × 35 cm) illuminated with a light intensity of 335 lux. During the habituation trial (2 consecutive days), each animal was allowed to explore the arena for 10 min. The next day, during the training trial (T1), mice were placed in the arena and were presented with two identical objects (red glass cylinder; 6.5 cm in diameter and 4.5 cm high) for 5 min. After 1 h, animals were placed back into the arena for a 5 min test trial, during which one of the previously presented familiar objects was replaced with a novel object (a transparent glass elongated sphere-like object with an orange cap; 5.5 cm in diameter and 8.5 cm high). Time spent exploring (i.e., sniffing or touching) the familiar (Tfamiliar) and novel (Tnovel) objects was measured by a trained observer, and the recognition index [%] was calculated for each mouse [(Tnovel – Tfamiliar)/(Tfamiliar + Tnovel)] * 100.

[2] = system: MK-801-treated mice; assay: Social interaction test (MK-801-induced disruptions); assay type: in vivo, mice (male CD1); conditions: for treatment of deficits in social interactions induced by prolonged MK-801: compounds acutely 24 h later, 30 min before test, LY487379 0.25, 0.5, 1 mg/kg, VU152100 0.1, 0.25, 5 mg/kg; for prevention of MK-801-induced deficits in social interactions: acute, 30 min before acute MK-801
Description: as §1, §2
This procedure was adapted from de Moura Linck et al. and performed as described in our previous papers. Habituation and test trials were performed in a black plastic rectangular arena (40 × 30 × 35 cm) illuminated with a light intensity of 335 lux. During the habituation trial (2 consecutive days), each animal was allowed to explore the arena for 10 min. The test trial was conducted the following day, during which body-weight-matched mice (± 10% difference) from two different cages were placed into the arena for 10 min. Social interactions between the two mice were determined based on the total time spent participating in social behaviours, such as sniffing, genital investigation and chasing.

[3] = system: MK-801-treated mice; set-up: method as in PMID 30054675; conditions: acute MK-801 model; cited from earlier work
[4] = system: MK-801-treated mice; set-up: method as in PMID 30054675; conditions: acute MK-801 model; cited from earlier work; remark: listed apart in the source

Compound	induction of deficits in novel object recognition ([1]; MK-801 0.3 mg/kg for 7 days, observed 24 h after the last administration)	induction of deficits in social interactions ([2]; MK-801 0.3 mg/kg for 7 days, observed 24 h after the last injection)	treatment of deficits in novel object recognition induced by prolonged MK-801 ([1]; MK-801 0.3 mg/kg for 7 days)	treatment of deficits in social interactions induced by prolonged MK-801 ([2]; MK-801 0.3 mg/kg for 7 days)	sub-effective dose in novel object recognition [3] [mg/kg]	sub-effective dose in social interaction [4] [mg/kg]	effect on learning abilities when given alone ([1]; compound alone, without MK-801)	prevention of MK-801-induced disruptions in object recognition ([1]; dose 0.5 mg/kg i.p.)	prevention of MK-801-induced disruptions in object recognition ([1]; doses of 1 and 3 mg/kg i.p.)	effect on social behaviour when given alone ([2]; compound alone, without MK-801)	prevention of MK-801-induced deficits in social interactions ([2]; dose 0.5 mg/kg i.p.)	prevention of MK-801-induced deficits in social interactions ([2]; doses of 1 and 3 mg/kg i.p.)
C[C@]12N[C@H](Cc3ccccc31)c1ccccc12 [MK-801]	induced deficits in the novel object recognition paradigm	induced deficits in social interactions	–	–	–	–	–	–	–	–	–	–
COc1ccc(CNC(=O)c2sc3nc(C)cc(C)c3c2N)cc1 [VU152100]	–	–	treated the MK-801-induced deficits at all administered doses	treated MK-801-induced deficits at all administered doses	0.25	0.5	–	–	–	–	–	–
COc1ccccc1Oc1ccc(N(Cc2cccnc2)S(=O)(=O)CC(F)(F)F)cc1 [LY487379]	–	–	treated the MK-801-induced deficits at all administered doses	treated MK-801-induced deficits at all administered doses	–	–	no effect on learning abilities	ineffective	prevented MK-801-induced disruptions in object recognition	no effect on social behaviour	ineffective	prevented the MK-801-induced deficits
